Assays:
[1] = target: Sodium-dependent dopamine transporter (Homo sapiens, UniProt Q01959)
[2] = target: Sodium-dependent noradrenaline transporter (Homo sapiens, UniProt P23975)
[3] = target: T1, 5-hydroxytryptamine receptor 1A (Homo sapiens, UniProt P08908)
T1 sequence (P08908 whole entry): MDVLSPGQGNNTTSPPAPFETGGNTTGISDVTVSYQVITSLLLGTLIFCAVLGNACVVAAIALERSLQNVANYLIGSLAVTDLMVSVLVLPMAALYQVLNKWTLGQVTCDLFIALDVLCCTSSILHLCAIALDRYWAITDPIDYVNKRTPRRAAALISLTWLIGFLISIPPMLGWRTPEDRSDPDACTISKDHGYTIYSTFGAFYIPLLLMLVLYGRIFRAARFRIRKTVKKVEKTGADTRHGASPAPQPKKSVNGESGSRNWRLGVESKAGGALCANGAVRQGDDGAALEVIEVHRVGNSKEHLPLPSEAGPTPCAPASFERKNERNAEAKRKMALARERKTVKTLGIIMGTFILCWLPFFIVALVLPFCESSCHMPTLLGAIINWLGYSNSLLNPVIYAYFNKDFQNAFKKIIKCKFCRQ

[4] = target: T2, Muscarinic acetylcholine receptor M2 (Homo sapiens, UniProt P08172)
T2 sequence (P08172 whole entry): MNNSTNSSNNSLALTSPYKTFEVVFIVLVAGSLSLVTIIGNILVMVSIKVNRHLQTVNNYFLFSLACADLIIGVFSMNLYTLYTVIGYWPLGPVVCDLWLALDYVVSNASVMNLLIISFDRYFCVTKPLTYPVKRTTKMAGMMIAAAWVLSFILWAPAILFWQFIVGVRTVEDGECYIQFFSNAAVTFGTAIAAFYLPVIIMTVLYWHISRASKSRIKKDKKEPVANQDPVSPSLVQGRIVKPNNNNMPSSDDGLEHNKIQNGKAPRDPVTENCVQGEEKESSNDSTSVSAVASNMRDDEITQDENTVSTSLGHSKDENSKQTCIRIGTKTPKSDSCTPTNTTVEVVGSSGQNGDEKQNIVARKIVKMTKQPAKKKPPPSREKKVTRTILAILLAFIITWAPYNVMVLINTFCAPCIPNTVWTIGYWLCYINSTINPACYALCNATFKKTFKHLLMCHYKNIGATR

[5] = target: T3, Amine oxidase [flavin-containing] A (Homo sapiens, UniProt P21397); type: functional
T3 sequence (P21397 whole entry): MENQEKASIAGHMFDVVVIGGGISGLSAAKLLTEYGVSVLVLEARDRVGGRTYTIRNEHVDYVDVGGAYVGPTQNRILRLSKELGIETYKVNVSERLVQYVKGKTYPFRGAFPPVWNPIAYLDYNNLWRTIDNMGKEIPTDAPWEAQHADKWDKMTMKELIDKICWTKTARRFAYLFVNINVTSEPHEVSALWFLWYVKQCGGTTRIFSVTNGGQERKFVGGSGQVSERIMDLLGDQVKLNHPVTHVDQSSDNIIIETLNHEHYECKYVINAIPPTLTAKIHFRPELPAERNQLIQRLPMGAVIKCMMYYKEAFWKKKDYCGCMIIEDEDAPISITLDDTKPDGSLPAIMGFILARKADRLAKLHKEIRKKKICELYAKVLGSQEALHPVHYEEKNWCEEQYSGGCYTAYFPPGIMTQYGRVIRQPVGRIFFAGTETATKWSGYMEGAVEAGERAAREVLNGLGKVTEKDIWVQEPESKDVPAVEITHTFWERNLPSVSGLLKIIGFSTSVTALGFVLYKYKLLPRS

Thromboxane A2 receptor [6] = target: T4, Thromboxane A2 receptor (Homo sapiens, UniProt P21731); type: functional, cell-based
T4 sequence (P21731 whole entry): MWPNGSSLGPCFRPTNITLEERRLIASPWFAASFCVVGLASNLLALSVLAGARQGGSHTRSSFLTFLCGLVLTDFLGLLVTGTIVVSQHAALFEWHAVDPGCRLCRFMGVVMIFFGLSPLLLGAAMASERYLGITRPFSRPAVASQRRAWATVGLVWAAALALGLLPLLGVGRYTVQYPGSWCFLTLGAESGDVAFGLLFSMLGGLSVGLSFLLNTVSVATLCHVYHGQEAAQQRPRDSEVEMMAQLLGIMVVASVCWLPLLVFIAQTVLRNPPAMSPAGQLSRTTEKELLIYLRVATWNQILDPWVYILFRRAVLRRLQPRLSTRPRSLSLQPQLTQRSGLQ

[7] = target: Vascular endothelial growth factor receptor 2 (Homo sapiens, UniProt P35968); type: functional
Vascular endothelial growth factor receptor 2, sequence (P35968 whole entry): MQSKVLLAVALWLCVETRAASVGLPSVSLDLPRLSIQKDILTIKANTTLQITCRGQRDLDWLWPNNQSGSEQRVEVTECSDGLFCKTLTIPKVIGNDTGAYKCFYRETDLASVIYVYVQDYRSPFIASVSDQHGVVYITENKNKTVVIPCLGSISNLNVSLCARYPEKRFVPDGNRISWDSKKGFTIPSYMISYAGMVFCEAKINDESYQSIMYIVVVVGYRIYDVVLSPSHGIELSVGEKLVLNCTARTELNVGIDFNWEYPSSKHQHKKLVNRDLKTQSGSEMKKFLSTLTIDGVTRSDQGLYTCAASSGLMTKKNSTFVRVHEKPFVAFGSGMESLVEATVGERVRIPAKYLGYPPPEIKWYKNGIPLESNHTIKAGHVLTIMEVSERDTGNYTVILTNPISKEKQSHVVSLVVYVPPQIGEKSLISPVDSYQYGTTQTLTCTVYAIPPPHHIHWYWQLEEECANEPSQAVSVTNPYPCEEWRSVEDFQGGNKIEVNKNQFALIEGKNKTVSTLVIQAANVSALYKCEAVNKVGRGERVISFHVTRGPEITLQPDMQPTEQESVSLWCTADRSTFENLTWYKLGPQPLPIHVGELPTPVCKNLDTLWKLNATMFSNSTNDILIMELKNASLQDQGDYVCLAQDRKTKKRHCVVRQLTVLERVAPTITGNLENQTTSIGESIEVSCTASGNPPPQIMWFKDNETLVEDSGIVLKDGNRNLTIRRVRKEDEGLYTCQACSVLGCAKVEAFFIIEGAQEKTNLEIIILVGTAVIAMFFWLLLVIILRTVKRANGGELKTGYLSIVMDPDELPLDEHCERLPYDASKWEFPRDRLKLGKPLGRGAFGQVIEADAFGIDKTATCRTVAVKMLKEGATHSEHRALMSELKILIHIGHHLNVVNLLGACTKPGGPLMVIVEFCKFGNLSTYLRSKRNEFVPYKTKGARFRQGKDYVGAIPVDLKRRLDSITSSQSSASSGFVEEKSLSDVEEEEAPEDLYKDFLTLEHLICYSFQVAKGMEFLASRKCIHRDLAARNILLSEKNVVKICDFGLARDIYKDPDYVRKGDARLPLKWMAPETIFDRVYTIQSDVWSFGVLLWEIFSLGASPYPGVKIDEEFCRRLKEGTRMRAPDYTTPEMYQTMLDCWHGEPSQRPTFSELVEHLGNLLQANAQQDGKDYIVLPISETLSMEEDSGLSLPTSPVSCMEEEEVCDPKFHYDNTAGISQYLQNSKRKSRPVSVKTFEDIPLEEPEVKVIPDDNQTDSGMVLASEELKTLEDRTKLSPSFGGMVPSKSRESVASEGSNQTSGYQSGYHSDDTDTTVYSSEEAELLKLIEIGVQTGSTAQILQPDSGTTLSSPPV

Estrogen receptor = target: T5, Estrogen receptor (Homo sapiens, UniProt P03372)
T5 sequence (P03372 whole entry): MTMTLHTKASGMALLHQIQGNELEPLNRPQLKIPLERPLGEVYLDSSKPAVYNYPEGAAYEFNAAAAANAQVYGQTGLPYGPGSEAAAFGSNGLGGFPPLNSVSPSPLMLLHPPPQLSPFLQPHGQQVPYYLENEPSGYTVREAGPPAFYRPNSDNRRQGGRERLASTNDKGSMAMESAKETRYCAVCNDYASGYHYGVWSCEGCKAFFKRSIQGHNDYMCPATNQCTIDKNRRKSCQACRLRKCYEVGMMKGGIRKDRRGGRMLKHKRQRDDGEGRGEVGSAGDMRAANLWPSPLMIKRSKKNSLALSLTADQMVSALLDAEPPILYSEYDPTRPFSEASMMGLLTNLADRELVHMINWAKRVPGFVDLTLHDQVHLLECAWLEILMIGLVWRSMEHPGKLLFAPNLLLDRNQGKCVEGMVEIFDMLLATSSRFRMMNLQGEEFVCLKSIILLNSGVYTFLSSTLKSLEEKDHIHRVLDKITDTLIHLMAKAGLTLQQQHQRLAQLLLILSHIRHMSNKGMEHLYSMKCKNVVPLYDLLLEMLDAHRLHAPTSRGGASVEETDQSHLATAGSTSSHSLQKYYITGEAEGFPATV

Adenosine receptor A3 = target: T6, Adenosine receptor A3 (Homo sapiens, UniProt P0DMS8)
T6 sequence (P0DMS8 whole entry): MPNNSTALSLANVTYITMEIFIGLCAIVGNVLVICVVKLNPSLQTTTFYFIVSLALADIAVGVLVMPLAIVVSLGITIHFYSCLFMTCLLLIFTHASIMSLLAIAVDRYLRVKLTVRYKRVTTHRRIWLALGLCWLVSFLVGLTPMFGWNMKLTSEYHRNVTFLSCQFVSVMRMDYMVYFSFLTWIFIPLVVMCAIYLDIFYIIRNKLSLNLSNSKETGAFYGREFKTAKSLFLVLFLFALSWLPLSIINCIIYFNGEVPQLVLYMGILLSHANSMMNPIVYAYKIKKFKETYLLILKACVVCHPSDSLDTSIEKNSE

Thromboxane A2 receptor [8] = target: T4, Thromboxane A2 receptor; type: functional, cell-based; remark: listed apart in the source
Note: assay procedure not described here.

Sodium-dependent noradrenaline transporter, sequence (P23975 whole entry): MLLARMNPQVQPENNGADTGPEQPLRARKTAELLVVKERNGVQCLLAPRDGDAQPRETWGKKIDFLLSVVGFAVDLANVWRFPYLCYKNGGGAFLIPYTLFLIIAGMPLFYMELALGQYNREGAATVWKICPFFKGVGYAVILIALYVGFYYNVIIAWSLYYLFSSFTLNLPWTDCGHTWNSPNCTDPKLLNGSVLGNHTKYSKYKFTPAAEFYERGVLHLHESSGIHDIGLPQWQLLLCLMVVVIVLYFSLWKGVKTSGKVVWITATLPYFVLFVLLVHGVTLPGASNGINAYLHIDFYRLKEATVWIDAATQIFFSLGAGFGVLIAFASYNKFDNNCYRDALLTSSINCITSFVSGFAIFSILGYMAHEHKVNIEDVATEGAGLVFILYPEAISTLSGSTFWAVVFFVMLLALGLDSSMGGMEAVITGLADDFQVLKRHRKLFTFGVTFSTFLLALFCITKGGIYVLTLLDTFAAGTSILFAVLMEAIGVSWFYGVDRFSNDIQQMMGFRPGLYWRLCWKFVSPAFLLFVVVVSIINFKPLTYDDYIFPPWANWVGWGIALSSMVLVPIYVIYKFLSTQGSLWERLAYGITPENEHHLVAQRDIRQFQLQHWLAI
Sodium-dependent dopamine transporter, sequence (Q01959 whole entry): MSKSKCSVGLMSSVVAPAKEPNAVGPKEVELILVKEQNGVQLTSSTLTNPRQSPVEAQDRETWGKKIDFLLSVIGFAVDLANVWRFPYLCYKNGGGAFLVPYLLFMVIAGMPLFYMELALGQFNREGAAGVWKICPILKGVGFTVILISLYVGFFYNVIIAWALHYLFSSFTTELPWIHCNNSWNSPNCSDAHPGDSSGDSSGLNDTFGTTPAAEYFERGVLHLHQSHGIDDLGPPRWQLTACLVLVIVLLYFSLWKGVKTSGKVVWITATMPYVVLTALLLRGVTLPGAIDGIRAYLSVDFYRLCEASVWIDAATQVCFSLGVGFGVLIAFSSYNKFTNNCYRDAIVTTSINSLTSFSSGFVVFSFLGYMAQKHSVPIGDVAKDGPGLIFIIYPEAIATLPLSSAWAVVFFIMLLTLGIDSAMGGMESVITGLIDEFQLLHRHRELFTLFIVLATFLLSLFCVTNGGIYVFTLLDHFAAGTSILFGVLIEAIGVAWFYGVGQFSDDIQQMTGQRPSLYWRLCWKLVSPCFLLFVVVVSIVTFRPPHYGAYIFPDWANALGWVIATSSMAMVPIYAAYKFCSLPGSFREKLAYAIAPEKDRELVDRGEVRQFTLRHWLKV

Row | Compound | AC50 [1] [µM] | AC50 [2] [µM] | AC50 [3] [µM] | AC50 [4] [µM] | AC50 [5] [µM] | AC50 (Thromboxane A2 receptor [6]) [µM] | AC50 [7] [µM] | AC50 (Estrogen receptor) [µM] | AC50 (Adenosine receptor A3) [µM] | AC50 (Thromboxane A2 receptor [8]) [µM]
1 | CC(CNC(=O)c1ccccc1)C(=O)OCC(=O)[C@@]12OC(C)(C)O[C@@H]1C[C@H]1[C@@H]3CCC4=CC(=O)C=C[C@]4(C)[C@@]3(F)[C@@H](O)C[C@@]12C (stereo not given in full) [TRIAMCINOLONE BENETONIDE] | > 30 | > 30 | > 30 | > 30 | > 30 | > 30 | > 30 | > 30 | > 30 | > 30
2 | C=CCN1C[C@H](C(=O)N(CCCN(C)C)C(=O)NCC)C[C@@H]2c3cccc4[nH]cc(c34)C[C@H]21 [CABERGOLINE] | 4.64 | 29.6 | 0.0083 | > 30 | > 30 | > 30 | > 30 | > 30 | > 30 | > 30
3 | CC(=O)OCC1=C(C(=O)O)N2C(=O)[C@@H](NC(=O)[C@H](N)c3ccccc3)[C@H]2SC1 [CEPHALOGLYCIN] | > 30 | > 30 | > 30 | > 30 | > 30 | > 30 | > 30 | > 30 | > 30 | > 30
4 | Cc1cc(NS(=O)(=O)c2ccc(N)cc2)nc(C)n1 [SULFISOMIDINE] | > 30 | > 30 | > 30 | > 30 | > 30 | > 30 | > 30 | > 30 | > 30 | > 30
5 | CCN(CC)CCc1nc(-c2ccccc2)no1 [OXOLAMINE] | > 30 | > 30 | 15.5 | > 30 | > 30 | > 30 | > 30 | > 30 | > 30 | > 30
6 | O=C(Nc1ccc(Cl)cc1)Nc1ccc(Cl)c(Cl)c1 [TRICLOCARBAN] | > 10 | 0.863 | > 30 | > 30 | > 30 | > 30 | > 30 | > 30 | 2.08 | > 30
7 | OC(CCN1CCCCC1)(c1ccccc1)c1ccccc1 [PRIDINOL] | > 30 | > 30 | 29.8 | 0.129 | > 30 | > 30 | > 30 | > 30 | > 30 | > 30
8 | Nc1ccc(S(=O)(=O)c2cnc(N)s2)cc1 [THIAZOLSULFONE] | 24.3 | > 30 | > 30 | > 30 | > 30 | > 30 | > 30 | > 30 | 13.8 | > 30
9 | O=c1[nH]c(=O)n([C@H]2C[C@H](O)[C@@H](CO)O2)cc1F [FLOXURIDINE] | > 30 | > 30 | > 30 | > 30 | > 30 | > 30 | > 30 | > 30 | > 30 | > 30
10 | CC[C@H]1CN2CC[C@H]1C[C@H]2[C@H](O)c1ccnc2ccc(OC)cc12 [HYDROQUININE] | 29.1 | > 30 | > 30 | 23.4 | > 30 | > 30 | > 30 | > 30 | > 30 | > 30
11 | CC(C)(C)NCC(O)COc1cccc2c1SCCC2 (stereo not given) [TERTATOLOL] | > 30 | 29.6 | 0.0569 | > 30 | > 30 | > 30 | > 30 | > 30 | > 30 | > 30
12 | CC(=O)[C@@]1(O)CC[C@H]2[C@@H]3C=C(C)C4=CC(=O)CC[C@]4(C)[C@H]3CC[C@@]21C | > 30 | > 30 | > 30 | > 30 | > 30 | > 30 | > 30 | > 30 | > 30 | > 30
13 | CC(C)(C)CC(C)(C)c1ccc(O)c(Cc2ccc(Cl)cc2Cl)c1 [CLOFOCTOL] | 3.54 | 3.4 | > 30 | > 10 | > 30 | > 30 | > 30 | 8.45 | 1.12 | > 30
14 | CC(C)(C)C(=O)C(Oc1ccc(Cl)cc1)n1ccnc1 (stereo not given) [CLIMBAZOLE] | 0.0662 | 20.8 | > 30 | > 30 | > 30 | > 30 | > 30 | > 30 | 20.2 | > 30
15 | CC(=O)OCC(=O)[C@@]1(O)CC[C@H]2[C@@H]3CCC4=CC(=O)C=C[C@]4(C)[C@@]3(Cl)[C@@H](Cl)C[C@@]21C [DICHLORISONE ACETATE] | > 30 | > 30 | > 30 | > 30 | > 30 | > 30 | > 30 | > 30 | > 30 | > 30
16 | COc1ccc(C(=O)Nc2ccccc2CCC2CCCCN2C)cc1 (stereo not given) [ENCAINIDE] | > 30 | > 30 | > 30 | > 30 | > 30 | > 30 | > 30 | > 30 | > 30 | > 30

From ChEMBL document CHEMBL5291721, “A preclinical secondary pharmacology resource illuminates target-adverse drug reaction associations of marketed drugs” (Nat Commun, 2023)
